Literature values, collected in publication PMC10384408, “Anticancer Tungstenocenes with a Diverse Set of (O,O–), (O,S–) and (O,N–) Chelates—A Detailed Biological Study Using an Improved Evaluation via 3D Spheroid Models” (Pharmaceutics, 2023).

Columns and labels:
Settings in all cases: MTT assay, 96 h; cited from earlier work
[1] = test system: A549 (non-small cell lung carcinoma) cells
[2] = test system: SW480 (colon carcinoma) cells
[3] = test system: CH1/PA-1 (ovarian teratocarcinoma) cells

Compound	IC50 [1] [µM]	IC50 [2] [µM]	IC50 [3] [µM]
Cc1occc(=O)c1[O-].F[P-](F)(F)(F)(F)F.[Mo+4].c1cc[cH-]c1.c1cc[cH-]c1 [[Cp2Mo(L1)]PF6]	> 200	> 200	> 200
Cc1occc(=S)c1[O-].F[P-](F)(F)(F)(F)F.[Mo+4].c1cc[cH-]c1.c1cc[cH-]c1 [[Cp2Mo(L2)]PF6]	106 ± 15	55 ± 9	29 ± 10
F[P-](F)(F)(F)(F)F.O=c1c([O-])c(-c2ccc(Cl)cc2)oc2ccccc12.[Mo+4].c1cc[cH-]c1.c1cc[cH-]c1 [[Cp2Mo(L3)]PF6]	24 ± 4	5.6 ± 0.2	1.7 ± 0.4
F[P-](F)(F)(F)(F)F.[Mo+4].[O-]c1c(-c2ccc(Cl)cc2)oc2ccccc2c1=S.c1cc[cH-]c1.c1cc[cH-]c1 [[Cp2Mo(L4)]PF6]	5.7 ± 1	1.6 ± 0.2	0.72 ± 0.13
F[P-](F)(F)(F)(F)F.O=C([O-])c1ccccn1.[Mo+4].c1cc[cH-]c1.c1cc[cH-]c1 [[Cp2Mo(L5)]PF6]	> 200	> 200	> 200
